Assay results: patent US20010006673A1, “LUTEIN- CONTAINING SUPPLEMENT AND PROCESS FOR ENHANCING IMMUNE RESPONSE IN ANIMALS” (priority 1998, published 2001)

Tests used:
[1] = test system: lymphocyte subsets (CD5, CD4, CD8, MHC class II, CD21); assay: Lymphocyte subsets by flow cytometry, dogs; format: in vivo, Beagle dogs
Method: Blood leukocytes were separated using Histopaque-1119 (Sigma, St. Louis, Mo.). Cells were washed three times with phosphate-buffered saline (PBS, pH 7.4) and contaminating erythrocytes were lysed in NH4CI (8.4 g/L). Lymphocyte subsets were determined by flow cytometry (FACScan, Becton Dickinson, San Jose, Calif.). Isolated mononuclear cells were resuspended to 1×10^7 cells/mL in PBS supplemented with 2% gamma globulin-free serum, 5% goat serum and 0.2 g/L sodium azide. For immunofluorescence analysis, a total of 5×10^5 cells were incubated for 30 minutes on ice with optimal concentrations of mouse anti-canine monoclonal antibody (mAb). The mAb used were specific for the following lymphocyte subsets: total T cells (anti-CD5), T-helper cells (anti-CD4), T-cytotoxic/suppressor cells (anti-CD8), lymphocytes expressing major histocompatability complex (MHQ class II antigens (anti-MHC class II), and B cells (anti-CD21). Cells were then washed three times and incubated with a secondary antibody, fluorescein isothiocyanate (FITC)-conjugated goat F(ab′)2 anti-mouse IgG+IgM (H+L) (Caltag, Burlingame, Calif.), for 30 minutes on ice to visualize the bound mAb. Stained cells were fixed in 4% paraformaldehyde in preparation for acquisition. Appropriate negative controls were included to correct for background fluorescence. Data were expressed as the percentage of positive-staining cells corrected for cells stained nonspecifically with the secondary antibody.

[2] = test system: lymphocyte subsets (CD3, CD4, CD8, MHC class II, CD21); assay: Lymphocyte subpopulations by flow cytometry, cats; format: in vivo, Tabby cats
Method: Blood leukocytes were separated on Histopaque-1119 (Sigma, St. Louis, Mo.) and cells washed three times with phosphate-buffered saline (PBS, pH 7.4). Contaminating RBC were lysed with NH4Cl (8.4 g/L) and cell viability determined by trypan blue exclusion. Lymphocyte subsets were determined by FACScan flow cytometry (Becton Dickinson, San Jose, Calif.) immediately after cell preparation. Isolated PBMC were resuspended to 1×10^7 cells/mL phosphate buffered saline (PBS) supplemented with 2% gamma globulin-free serum, 5% goat serum and 0.2 g/L sodium azide (Baker, Phillipsburg, N.J.). For immunofluorescence analysis, 5×10^5 cells were incubated for 30 minutes on ice with a previously determined optimal concentration of mouse anti-cat primary monoclonal antibody. The antibodies were specific for the following lymphocyte subsets: total T cells (anti-CD3), T-helper cells (anti-CD4), T cytotoxic/suppressor cells (anti-CD8), lymphocytes expressing major histocompatibility complex (MHC) class II antigens (anti-MHC class II), and B cells (anti-CD21). Cells were then washed three times and incubated with a secondary antibody, fluorescein isothiocyanate (FITC)-conjugated goat F(ab′)2 anti-mouse IgG (H+L) (Caltag, Burlingame, Calif.) for 30 minutes on ice to visualize the bound antibody. Stained cells were fixed in 4% paraformaldehyde in preparation for acquisition. Appropriate negative controls were included to correct the level of background fluorescence. Fluorescence analysis was performed on lymphocytes gated by forward and side scatter. Data were expressed as a percentage of positive-staining cells corrected for cells stained nonspecifically with the secondary antibody.

[3] = Plasma extraction and HPLC analysis in dogs (lutein+zeaxanthin, retinol, α-tocopherol); format: in vivo, Beagle dogs
Method: Fifty six female Beagle dogs (17 to 18 months old; average body weight 11.4±0.4 kg) were randomly assigned to be supplemented daily with 0, 5, 10 or 20 mg lutein for 17 weeks. The lutein contained 76.66% lutein and 5.23% zeaxanthin. The lutein supplement was resuspended in soybean oil to the appropriate concentration and 1 mL administered perorally at 0800 h daily. Food (200 g/dog/d) was offered immediately after the lutein supplementation. The basal diet shown in Table 1 below met or exceeded the requirements for all essential nutrients (NRC 1985).
Blood was collected by jugular venipuncture into heparinized evacuated tubes on weeks 0, 2, 4, 8 and 12 and aliquots used for HPLC analysis and for assessing immune responses.
Plasma was extracted for analysis of lutein, zeaxanthin, retinol and α-tocopherol. Briefly, plasma protein was precipitated by adding an equal volume of ethanol containing 0.1% butylated hydroxytoluene (BHT) (Aldrich Chemical Co., Milwaukee, Wis.). The mixture was extracted with 5 mL of a 1:1 mixture of petroleum ether:anhydrous diethyl ether.
The dried residue was resuspended in mobile phase consisting of a 47:47:6 (v:v:v) mixture of HPLC-grade acetonitrile: methanol: chloroform (Fisher Scientific, Fair Lawn, N.J.). Lutein, zeaxanthin and α-tocopherol were quantitated by comparing the area under the curve whereas retinol was quantitated using peak height. The identity of the eluted compounds was confirmed by comparing their absorption spectrum with that of pure standards. Because baseline separation of lutein and zeaxanthin was not accomplished, plasma concentrations were reported as lutein+zeaxanthin.

malondialdehyde = assay: Lipid peroxidation (TBARS), cat plasma; format: in vivo, Tabby cats; conditions: cats
Method: Lipid peroxidation was assessed by the TBARS (thiobarbituric acid-reactive substances) assay on plasma collected on weeks 0, 2, 4, 8 and 12. Duplicate 500 μL of cat plasma was boiled for 45 minutes with 3 mL of phosphoric acid (10 g/L) and 1 mL of TBA (6 g/L). After cooling, the TBA-MDA (malondialdehyde) complex was extracted with 4 mL of n-butanol. The butanol layer was separated by centrifugation (1,000×g for 10 minutes) and absorbance read (Beckman, Fullerton, Calif.) at 532 nm. […] Louis, Mo.).

Splenocytes = conditions: splenocytes from mice injected peritoneally; cited from earlier work

CC1=C[C@H](O)CC(C)(C)[C@H]1/C=C/C(C)=C/C=C/C(C)=C/C=C/C=C(C)/C=C/C=C(C)/C=C/C1=C(C)C[C@@H](O)CC1(C)C [lutein]
CD21+ B cell population ([1]; dogs): did not significantly influence | % CD8+ T cytotoxic cells vs control ([1]; dogs fed 20 mg lutein, week 8): significantly higher | % MHC class II cell populations vs unsupplemented dogs ([1]; dogs fed 20 mg lutein, week 8 and 12): elevated | % CD4+ cells ([1]; dogs fed 5 and 10 mg lutein, week 12): higher | CD8+ population ([1]; dogs, week 12): not influenced | Percentages of CD5+ cells vs unsupplemented controls ([1]; dogs, weeks 4 and 8, statistically significant with 5 and 20 mg lutein): higher | Total number of T cells (CD3) ([2]; cats): did not influence significantly | Percentage of CD21+ B cells ([2]; cats fed 10 mg lutein, week 12): significantly elevated | Percentage of CD8+ T cytotoxic cells ([2]; cats, any of the time periods): not influenced significantly | Percentage of MHC class II+ cells ([2]; cats, any of the time periods): not influenced significantly | Ratio of CD4:CD8 ([2]; cats, any of the time periods): not influenced significantly | Plasma concentrations of lutein+zeaxanthin ([3]; dogs fed 10 and 20 mg lutein, after week 2, more gradually): continued to increase | Plasma lutein+zeaxanthin vs unsupplemented animals ([3]; dogs, weeks 2 through 12, P<0.05): significantly higher | Plasma concentrations of lutein+zeaxanthin ([3]; lutein-supplemented dogs, after 2 weeks of feeding): increased rapidly | Effect on plasma TBARS activity (malondialdehyde): did not significantly influence | Plasma TBARS, average (malondialdehyde; across all diet groups and periods): 20.3±0.2 nmol MDA/L | Antibody response to T-dependent antigens (Splenocytes): enhanced
